The source of these data is patent EP1138682A1, “Novel water soluble c-ring analogues of 20 (s)-camptothecin” (priority 1996, dated 1997).

The test system of data set [1] is NCI's 60 human tumor cell line. In words: NCI 60 human tumor cell line assay (sulforhodamine B). Format: cell-based. As to conditions: read-out: IC50 (the source's name).
Experimental: Each test compound was screened against a battery of 60 human cell lines obtained from eight organs. In a typical procedure, the cell suspensions that were diluted according to the particular cell type and the expected target cell density (5000-40,000 cells per well based on cell growth characteristics) were added into 96-well microtiter plates. Inoculates were allowed a preincubation period of 24h at 37°C. for stabilization. Dilutions at twice the intended test concentrations were added at time zero in 100-µl aliquots to microtiter plate wells. Usually test compounds were evaluated at five 10-fold dilutions. The highest well concentration used in the test is 10^-4M. The cells are then incubated in the presence of drug (the test compound) for further 48h in 5% CO2 atmosphere and 100% humidity. At the end of this time, the adherent cells are fixed to the plate by means of trichloroacetic acid, and after a number of washes, the cell layer is treated with the protein stain Sulforhodamine B. The optical density which is proportional to protein mass, is then read by automated spectrophotometric plate readers at a wavelength of 515 nm. Readings are transferred to a microcomputer and final reports are generated using especially developed software.
In data set [2] the target is Human Serum Albumin (Homo sapiens, UniProt P02768). As to conditions: in the presence of HSA at 37°C; comparison in words; cited from earlier work.
Setting [3] is: mean value of GI50 (50% cell growth inhibition) over NCI's 60 human tumor cell lines, 48h incubation with drug.

Read-outs that look alike come from different tables or passages of the source.

Chain of Human Serum Albumin (P02768 25-609): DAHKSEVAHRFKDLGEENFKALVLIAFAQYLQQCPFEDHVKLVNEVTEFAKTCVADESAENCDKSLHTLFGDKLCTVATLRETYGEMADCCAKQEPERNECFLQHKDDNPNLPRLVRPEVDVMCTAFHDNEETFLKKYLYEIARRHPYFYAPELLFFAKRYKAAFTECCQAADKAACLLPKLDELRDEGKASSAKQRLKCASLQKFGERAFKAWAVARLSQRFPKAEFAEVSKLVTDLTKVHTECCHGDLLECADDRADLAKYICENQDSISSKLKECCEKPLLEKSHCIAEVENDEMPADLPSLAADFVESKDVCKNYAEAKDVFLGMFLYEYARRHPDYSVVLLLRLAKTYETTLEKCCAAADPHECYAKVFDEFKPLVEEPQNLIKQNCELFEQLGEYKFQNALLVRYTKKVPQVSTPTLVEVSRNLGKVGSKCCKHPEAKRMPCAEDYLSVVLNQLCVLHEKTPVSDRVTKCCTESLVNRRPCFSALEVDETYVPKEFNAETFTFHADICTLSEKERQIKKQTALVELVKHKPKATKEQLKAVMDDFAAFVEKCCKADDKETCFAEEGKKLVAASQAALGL

Turning to “5-(2'-N-pyrrolidinoethoxy)-7-ethylcamptothecin [Example 39]”, the GI50 in data set [1] (setting [3]) was 18.6 µM.

With “5-(2'-aminoethoxy)-7-ethylcamptothecin [Example 37]”, the GI50 in data set [1] (setting [3]) came to 18.6 µM.

Take `CC[C@@]1(O)C(=O)OCc2c1cc1n(c2=O)C(OCCO)c2cc3c([N+](=O)[O-])cccc3nc2-1` (stereo partly shown) [9-Nitro-5-(2'-hydroxyethoxy)camptothecin]: in data set [1] (Homo sapiens, 48 h), the GI50 was found to be 7.94 µM.

Consider `CCOC1c2cc3c(O)cccc3nc2-c2cc3c(c(=O)n21)COC(=O)[C@]3(O)CC` (stereo partly shown) [Example 11, 5-Ethoxy-9-hydroxycamptothecin], for which, in data set [1] (setting [3]), the GI50 is 6.68 µM.

Regarding `CC[C@@]1(O)C(=O)OCc2c1cc1n(c2=O)C(OCC(F)(F)F)c2cc3cc(O)ccc3nc2-1` (stereo partly shown) [Example 27, 10-Hydroxy-5-trifluoroethoxycamptothecin], the GI50 in data set [1] (setting [3]) amounted to 0.38 µM.

As to `CC[C@@]1(O)C(=O)OCc2c1cc1n(c2=O)C(OCCOC)c2cc3ccccc3nc2-1` (stereo partly shown) [Example 43, 5-(2'-methoxyethoxy)camptothecin], the GI50 in data set [1] (setting [3]) was 2.23 µM.

Regarding `CCc1c2c(nc3ccc(O)cc13)-c1cc3c(c(=O)n1C2)COC(=O)[C@]3(O)CC` [SN-38, 7-ethyl-10-hydroxycamptothecin], the “percentage (%) of lactone form at equilibrium” value in data set [2] was “higher percentage (%) of lactone form at equilibrium than 20(S) camptothecin of the formula 3 and 9-aminocamptothecin of the formula 6”.
